Values quoted from earlier work in patent US4127520A, “Novel nonadecapeptides, intermediates therefor, and compositions and methods employing said nonadecapeptides” (priority 1977, dated 1978).

What was measured:
[1] = system: partially purified brain opiate receptor sites; conditions: natural peptide
[2] = injected directly into the brain of the rat

H-Tyr-Gly-Gly-Phe-Met-OH [methionine enkephalin]
binding to partially purified brain opiate receptor sites [1]: binds stereo-specifically
analgesic activity [2]: only weak analgesic agent of short duration
